In US20240352145A1, “EFFICACY OF ANTI-TROP-2-SN-38 ANTIBODY DRUG CONJUGATES FOR THERAPY OF TUMORS RELAPSED/REFRACTORY TO CHECKPOINT INHIBITORS” (Immunomedics, Inc., priority 2016, published 2024):

Experiments:
Capan-1 tumors = experiment: Capan-1 xenograft therapy; assay type: in vivo, mouse; conditions: for average tumor size: day 35, 0.4 mg SN-38/kg; for tumor-free mice at end of study: day 140; for tumor volume (TV): day 49, 0.4 mg/kg SN-38
Description: (§1) NCr female athymic nude (nu/nu) mice, 4 to 8 weeks old, and male Swiss-Webster mice, 10 weeks old, were purchased from Taconic Farms. Tolerability studies were performed in Cynomolgus monkeys (Macaca fascicularis; 2.5-4 kg male and female) by SNBL USA, Ltd. Animals were implanted subcutaneously with different human cancer cell lines. Tumor volume (TV) was determined by measurements in 2 dimensions using calipers, with volumes defined as: L×w^2/2, where L is the longest dimension of the tumor and w is the shortest. […] This dosing frequency reflected a consideration of the conjugate's serum half-life […], to allow a more continuous exposure to the ADC.
(§2) Statistics—Growth curves are shown as percent change in initial TV over time. Statistical analysis of tumor growth was based on area under the curve (AUC). Profiles of individual tumor growth were obtained through linear-curve modeling. An f-test was employed to determine equality of variance between groups before statistical analysis of growth curves. A 2-tailed t-test was used to assess statistical significance between the various treatment groups and controls, except for the saline control, where a 1-tailed t-test was used (significance at P≤0.05). Statistical comparisons of AUC were performed only up to the time that the first animal within a group was euthanized due to progression.

MDA-MB-468 TNBC tumors = experiment: MDA-MB-468 TNBC xenograft; assay type: in vivo, mouse; conditions: one animal each, tumors progressed to ~0.7 cm^3 on irinotecan
COLO 205 tumors = experiment: COLO 205 xenograft therapy; assay type: in vivo; conditions: for tumor volume (TV): 0.4 mg/kg, q4dx8, 28-day treatment period
[1] = Irinotecan MTD and conversion in mice; assay type: in vivo, mouse
[2] = animals given irinotecan; Goldenberg et al., 2014; cited from earlier work
[3] = weekly x 4 doses; Camptosar package insert; cited from earlier work
Trop-2 = molecular target: T1, Trop-2 (Homo sapiens, UniProt P09758); experiment: In vitro cell binding, multiple cell lines; parameters: endogenous in cells; host or cells: human cancer cell lines (ATCC)
T1 sequence (P09758 27-323): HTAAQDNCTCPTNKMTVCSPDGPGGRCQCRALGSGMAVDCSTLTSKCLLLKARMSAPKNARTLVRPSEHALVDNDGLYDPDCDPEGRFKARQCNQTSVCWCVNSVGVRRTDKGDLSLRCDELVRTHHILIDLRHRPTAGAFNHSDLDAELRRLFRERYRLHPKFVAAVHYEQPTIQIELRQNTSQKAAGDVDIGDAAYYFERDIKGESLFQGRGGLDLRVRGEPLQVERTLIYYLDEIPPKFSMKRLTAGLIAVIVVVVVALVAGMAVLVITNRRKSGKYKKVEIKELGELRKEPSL
Description: In Vitro Cell Binding—LumiGLO Chemiluminescent Substrate System (KPL, Gaithersberg, MD) was used to detect antibody binding to cells. Briefly, cells were plated into a 96 black-well, flat-clear-bottom plate overnight. Antibodies were serially diluted 1:2 and added in triplicate, yielding a concentration range from 0.03 to 66.7 nM. After incubating for 1 h at 4° C., the media was removed and the cells washed with fresh cold media followed by the addition of a 1:20,000 dilution of goat-antihuman horseradish peroxidase-conjugated secondary antibody (Jackson Immunoresearch, West Grove, PA) for 1 h at 4° C. The plates were again washed before the addition of the LumiGLO reagent. Plates were read for luminescence using an Envision plate reader (Perkin Elmer, Boston MA). Data were analyzed by non-linear regression to determine the equilibrium dissociation constant (KD). Statistical comparisons of KD-values were made with Prism GraphPad Software (v4.03) (Advanced Graphics Software, Inc.; Encinitas, CA) using an F-Test on the best-fit curves for the data. Significance was set at P<0.05.

BxPC-3 [4] = experiment: ADCC activity of hRS7-ADC conjugates; assay type: cell-based, human; conditions: 33.3 nM; PBMC effector to target ratio 100:1
Excerpt: PBMCs were purified from blood purchased from the Blood Center of New Jersey. A Trop-2-positive human pancreatic adenocarcinoma cell line (BxPC-3) was used as the target cell line with an effector to target ratio of 100:1.

[5] = mouse, in vivo
Excerpt: Pharmacokinetics—Naive female NCr nude (nu/nu) mice, 8-10 weeks old, were purchased from Taconic Farms (Germantown, NY). […] ELISA was utilized to determine serum concentrations of total hRS7 IgG by competing for the binding to an anti-hRS7 IgG idiotype antibody with a horseradish peroxidase conjugate of hRS7. […] Pharmacokinetic (PK) parameters were computed by noncompartmental analysis using Phoenix WinNonlin software (version 6.3; Pharsight Corp., Mountainview, CA).

[6] = system: NCI-N87 human gastric tumor xenografts; experiment: Dose schedules and chronic dosing, NCI-N87 xenograft; assay type: in vivo, mouse; conditions: four cycles
Excerpt: (§3) In Vivo Therapeutic Studies—NCr female athymic nude (nu/nu) mice, 4-8 weeks old, were purchased from Taconic Farms (Germantown, NY). NCI-N87 gastric tumor xenografts were established by harvesting cells from tissue culture and making a final cell suspension 1:1 in matrigel (BD Bioscience; San Jose, CA), with each mouse receiving a total of 1×10^7 cells s.c. in the right flank. For BxPC-3. xenografts of 1 g were harvested, and a tumor suspension made in HBSS to a concentration of 40% tumor w/v. This suspension was mixed 1:1 with matrigel for a final tumor suspension of 20% w/v. […] For IHC, tumors were allowed to grow to approximately 0.5 cm^3 before the mice were euthanized and the tumors removed, formalin-fixed and paraffin-embedded. For therapy studies, mice were randomized into treatment groups and therapy begun when tumor volumes were approximately 0.25 cm^3.
(§4) Mice were euthanized and deemed to have succumbed to disease once tumors grew to greater than 1.0 cm^3 in size. […] Time to progression (TTP) was determined as time post-therapy initiation when the tumor grew more than 20% in size from its nadir.
A similar dose schedule experiment was performed in mice bearing NCI-N87 human gastric tumor xenografts (not shown). […] Likewise, in terms of overall survival, while all three dose schedules provided a significant survival benefit when compared to untreated control (P<0.0001), there were no differences between any of these three different schedules.
In all, four treatment cycles were administered to the animals.

[7] = system: BxPC-3 human pancreatic tumors; experiment: BxPC-3 xenograft therapy; assay type: in vivo, mouse; conditions: day 21; equivalent amounts of ADC
Description: as §1, §2

BxPC-3 [8] = experiment: dsDNA breaks, γH2AX induction in BxPC-3; assay type: cell-based, human; conditions: BxPC-3, 20 μg/ml for 30 min
Description: Assessment of Double-Stranded DNA Breaks In Vitro—For drug activity testing, BxPC-3 cells were seeded in 6-well plates at 5×10^5 cells/well and held at 37° C. overnight. […] The following morning, cells were trypsinized briefly, spun down, stained with Fixable Viability Stain 450 (BD Biosciences, San Jose, CA), washed with 1% BSA-PBS, and then fixed in 4% formalin for 15 min, washed again and permeabilized in 0.15% Triton-X100 in PBS for another 15 min. After washing twice with 1% BSA-PBS, cells were incubated with mouse anti-γH2AX-AF488 (EMD Millipore Corporation, Temecula, CA) for 45 min at 4° C. The signal intensity of γH2AX was measured by flow cytometry using a BD FACSCanto (BD Biosciences, San Jose, CA).

[9] = system: human gastric carcinoma xenograft, NCI-N87; experiment: NCI-N87 gastric carcinoma xenograft, Example 17; assay type: in vivo, mouse
Excerpt: as §3, §4
Survival studies were analyzed using Kaplan-Meier plots (log-rank analysis), using the Prism GraphPad Software (v4.03) software package (Advanced Graphics Software, Inc., Encinitas, CA).

Calu-3 = Calu-3 xenograft therapy; assay type: in vivo, mouse; conditions: for tumor volume (TV): 0.04 mg SN-38/kg every 4 days x 4; for outcome: 0.4 mg/kg SN-38
[10] = in vivo; cited from earlier work
pancreatic cancer = experiment: PAM4 clinical trial, 90Y-hPAM4 with gemcitabine; assay type: in vivo, human; conditions: 22 CT-assessable patients
Description: In the ongoing PAM4 clinical trials, a four week clinical treatment cycle is performed. In week 1, subjects are administered a dose of ^111In-hPAM4, followed at least 2 days later by gemcitabine dose. In weeks 2, 3 and 4, subjects are administered a ^90Y-hPAM4 dose, followed at least 2 days later by gemcitabine (200 mg/m^2). Escalation started at 3×6.5 mCi/m^2. The maximum tolerated dose in front-line pancreatic cancer patients was 3×15 mCi/m^2 (hematologic toxicity is dose-limiting).

Capan-1 = experiment: Combination 90Y-hPAM4 RAIT + ADC, Capan-1 xenograft; assay type: in vivo, mouse
Excerpt: Objective responses occurred in most animals, but they were more robust in both of the combination groups as compared to each agent given alone. […] These studies provide the first evidence that combined radioimmunotherapy and ADC enhances efficacy at safe doses.

[11] = 0.2 mg/kg SN-38 twice weekly x 4 weeks

CCc1c2c(nc3ccc(OC(=O)N4CCC(N5CCCCC5)CC4)cc13)-c1cc3c(c(=O)n1C2)COC(=O)[C@]3(O)CC [irinotecan, 7-ethyl-10-[4-(1-piperidino)-1-piperidino]carbonyloxycamptothecin]
average tumor size (Capan-1 tumors): 1.78±0.62 cm^3
decrease in tumor size after re-treatment (MDA-MB-468 TNBC tumors): 23%
efficacy of irinotecan at MTD (COLO 205 tumors; 24 mg SN-38/kg, q2dx5): as effective as hRS7-CL2-SN-38
MTD ([1]; IV, single injection): 40 mg/kg
MTD ([1]; q2dx5): 24 mg SN-38/kg
share of total serum SN-38 that is glucuronidated [2]: > 50%
grades 3 and 4 late diarrhea [3]: 31%

hRS7-NEM [reference compound]
KD (Trop-2): sub-nanomolar range
specific lysis (ADCC) (BxPC-3 [4]): no difference between hRS7-NEM and sacituzumab govitecan
half-life, Cmax, AUC, clearance, MRT vs parental hRS7 [5]: no significant differences

hA20-CL2A-SN-38 [reference compound]
tumor-free mice at end of study (Capan-1 tumors; [11]): 20%
TTP ([6]; 0.5 mg once a week for two weeks, one week off): 4.7 ± 2.2 days
median survival ([6]; chronic dosing): 21 days
tumor volume (TV) [7]: 1.05±0.73 cm^3
Percent Positive, γH2AX (BxPC-3 [8]; untreated 18.8 ± 6.3, listed as hA20-SN-38): 12.7 ± 2.4%
Mean Fluorescence Intensity, γH2AX (BxPC-3 [8]; untreated 2516 ± 191): 2246 ± 58
median survival time (MST) ([9]; 14 days for saline control): 24 days
mean time to progression (TTP) ([9]; mouse, in vivo): 4.1 ± 2.0 days

hLL2-CL2-SN-38 [reference compound]
tumor volume (TV) (Calu-3): 0.80±0.91 cm^3
outcome (Calu-3): tumors regrew

hA20-CL2-SN-38 [reference compound]
tumor volume (TV) (Capan-1 tumors): 0.80±0.68 cm^3
tumor volume (TV) (COLO 205 tumors): 1.19±0.59 cm^3

hRS7-Pro-2-PDox
specific lysis (ADCC) (BxPC-3 [4]): not significantly different

hRS7-CL2-SN-38
tumor growth vs untreated and hA20-CL2A-SN-38 (Capan-1 tumors; [11]): significantly inhibited tumor growth
average tumor size (Capan-1 tumors): 0.04±0.05 cm^3
tumor volume (TV) (Capan-1 tumors): 0.17±0.18 cm^3
tumor-free mice at end of study (Capan-1 tumors; [11]): 40%
tumor growth vs untreated and hA20-CL2A-SN-38 (COLO 205 tumors; 0.4 mg/kg SN-38 twice weekly x 4 weeks): significantly inhibited tumor growth
tumor volume (TV) (COLO 205 tumors): 0.16±0.09 cm^3
tumor volume (TV) (Calu-3): 0.14±0.22 cm^3
outcome (Calu-3): remained tumor-free until the end of the study on day 147

veltuzumab
immunogenicity in subjects [10]: less immunogenic in subjects than rituximab

B1: ^90Y-hPAM4 (conjugate, chains of the INN, looked up)
VH: QVQLQQSGAEVKKPGASVKVSCEASGYTFPSYVLHWVKQAPGQGLEWIGYINPYNDGTQYNEKFKGKATLTRDTSINTAYMELSRLRSDDTAVYYCARGFGGSYGFAYWGQGTLVTVSS
VL: DIQLTQSPSSLSASVGDRVTMTCSASSSVSSSYLYWYQQKPGKAPKLWIYSTSNLASGVPARFSGSGSGTDFTLTISSLQPEDSASYFCHQWNRYPYTFGGGTRLEIK
modifications: 90Y radiolabel
disease control rate (CR+PR+SD) (pancreatic cancer): 68%
partial responses (pancreatic cancer): 23%
stabilization as best response (pancreatic cancer): 45%
tumor-free mice after 20 weeks (Capan-1; 75 μCi 90Y-hPAM4 level, ADC alone, or their combination, n=10): 1 of 10
tumor-free animals (Capan-1; 130 μCi 90Y-hPAM4 level, n=10): 5 of 10

B2: hPAM4 (antibody, chains of the INN, looked up, V domains shown)
VH: B1 VH
VL: B1 VL
anti-tumor activity of unconjugated antibodies (Capan-1; given alone): Neither unconjugated hPAM4 nor hRS7 antibodies had anti-tumor activity
